# What was measured:
# [1] = target: T1, Prostaglandin G/H synthase 2 (Homo sapiens, UniProt P35354); format: cell-based, CHO
# T1 sequence (P35354 whole entry): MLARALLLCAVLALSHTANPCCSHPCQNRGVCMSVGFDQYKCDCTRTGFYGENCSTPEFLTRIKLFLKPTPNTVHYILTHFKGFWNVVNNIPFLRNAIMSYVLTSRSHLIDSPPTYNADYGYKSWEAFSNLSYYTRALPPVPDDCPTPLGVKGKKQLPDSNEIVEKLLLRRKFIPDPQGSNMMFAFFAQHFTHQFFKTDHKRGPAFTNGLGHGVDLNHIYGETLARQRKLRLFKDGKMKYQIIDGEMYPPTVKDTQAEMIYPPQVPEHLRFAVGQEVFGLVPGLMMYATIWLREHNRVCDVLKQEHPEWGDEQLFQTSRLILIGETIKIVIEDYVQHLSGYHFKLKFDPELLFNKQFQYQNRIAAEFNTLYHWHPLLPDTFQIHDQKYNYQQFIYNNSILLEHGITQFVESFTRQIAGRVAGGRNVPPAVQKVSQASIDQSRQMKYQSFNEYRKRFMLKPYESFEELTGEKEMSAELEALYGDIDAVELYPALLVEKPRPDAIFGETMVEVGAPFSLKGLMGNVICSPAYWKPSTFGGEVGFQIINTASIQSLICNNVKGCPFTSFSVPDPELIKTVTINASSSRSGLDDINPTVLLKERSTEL
# [2] = target: Prostaglandin G/H synthase 1 (Homo sapiens, UniProt P23219)
# Chain of Prostaglandin G/H synthase 1 (P23219 whole entry): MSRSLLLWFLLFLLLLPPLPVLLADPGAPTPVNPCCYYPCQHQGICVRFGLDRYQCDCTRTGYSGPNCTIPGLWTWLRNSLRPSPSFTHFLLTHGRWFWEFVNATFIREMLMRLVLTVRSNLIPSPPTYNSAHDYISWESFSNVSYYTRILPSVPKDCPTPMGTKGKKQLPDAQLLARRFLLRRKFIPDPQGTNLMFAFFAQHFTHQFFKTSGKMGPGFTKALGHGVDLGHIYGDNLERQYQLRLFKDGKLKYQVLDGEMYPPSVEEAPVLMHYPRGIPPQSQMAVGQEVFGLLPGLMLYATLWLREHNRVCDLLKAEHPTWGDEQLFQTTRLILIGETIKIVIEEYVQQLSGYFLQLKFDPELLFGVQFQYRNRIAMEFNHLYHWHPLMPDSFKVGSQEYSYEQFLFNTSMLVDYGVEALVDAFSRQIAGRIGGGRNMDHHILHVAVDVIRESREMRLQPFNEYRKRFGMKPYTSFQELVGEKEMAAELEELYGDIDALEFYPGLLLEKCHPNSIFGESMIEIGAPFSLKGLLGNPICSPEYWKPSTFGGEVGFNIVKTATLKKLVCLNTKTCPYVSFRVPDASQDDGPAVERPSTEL
# [3] = Compound was tested for plasma concentration in rats when administered at 20 mg/kg in 1% methocel at 1 hr; format: ADME, organism-based; set-up: dose 20 mg/kg; details: rat, read-out: Cmax
# Rattus norvegicus [4] = experiment: Compound was tested in vivo for efficacy in the rat paw edema assay upon oral administration.; format: functional
# Rattus norvegicus [5] = organism: Rattus norvegicus; experiment: animal or person; details: po, read-out: Inhibition
# in vivo = details: rat, plasma, 20 mg/kg
# Description: Compound was tested for plasma concentration in rats when administered at 20 mg/kg in 1% methocel at 2 hr
Structure (SMILES),IC50 [1] [nM],IC50 [2] [nM],concentration at 1 h [3] [nM],concentration at 2 h (in vivo) [nM],ED50 (Rattus norvegicus [4]) [mg/kg],inhibition in vivo at 30 mg/kg (Rattus norvegicus [5]) [%]
CC1(C)C(c2ccc(S(C)(=O)=O)cc2)=C(c2ccccc2)C1O (configuration not stated),530,45000,–,–,–,–
CC1(C)C(c2ccc(S(C)(=O)=O)cc2)=C(c2ccccc2)/C1=N/O,61,34000,1800,–,4.2,–
CS(=O)(=O)c1ccc(C2=C(c3ccccc3)C(=O)C23CCCC3)cc1,12,500,–,–,–,–
C=C1CC(c2ccc(S(C)(=O)=O)cc2)=C1c1ccccc1,–,540,1000,–,5.5,–
CS(=O)(=O)c1ccc(C2=C(c3ccc(F)cc3)CC3(CC3)C2)cc1,–,140,–,–,–,38
CS(=O)(=O)c1ccc(C2=C(c3ccccc3)CC2)cc1,> 5000,–,–,–,–,–
CS(=O)(=O)c1ccc(-c2cc(Br)sc2-c2ccc(F)cc2)cc1 [DUP-697],–,–,–,700,1.3,–

# Now from value to molecule, other results behind:
IC50 [1] [nM],IC50 [2] [nM],concentration at 1 h [3] [nM],concentration at 2 h (in vivo) [nM],Structure (SMILES),ED50 (Rattus norvegicus [4]) [mg/kg],inhibition in vivo at 30 mg/kg (Rattus norvegicus [5]) [%]
110,4400,–,–,CS(=O)(=O)c1ccc(C2=C(c3ccccc3)C(=O)C2)cc1,–,–
–,–,7500,–,CC1(C)C(=O)C(c2ccccc2)=C1c1ccc(S(C)(=O)=O)cc1,2.4,–
5,370,–,–,CC1(C)C(=O)C(c2ccc(F)cc2)=C1c1ccc(S(C)(=O)=O)cc1,–,–
2.2,120,–,–,C=C1C(c2ccccc2)=C(c2ccc(S(C)(=O)=O)cc2)C1(C)C,–,–
–,2000,8500,–,CC1(C)C(=O)C(c2ccc(S(C)(=O)=O)cc2)=C1c1ccccc1,2.7,–

# Source: ChEMBL document CHEMBL1129773, “Novel 1,2-diarylcyclobutenes: Selective and orally active cox-2 inhibitors” (Bioorg Med Chem Lett, 1996)
